Assay results reported in patent US9663473B2 (Actelion Pharmaceuticals Ltd, priority 2013, dated 2017).
Structures can show the parent of a compound that is named as a salt.

Target: T1, recombinant human ALX receptor (Homo sapiens, UniProt P25090)
T1 construct: expressed in transfected cells; host or cells: HEK293 (HEK293-hALXR-Gα16)
T1 sequence (P25090 1-351): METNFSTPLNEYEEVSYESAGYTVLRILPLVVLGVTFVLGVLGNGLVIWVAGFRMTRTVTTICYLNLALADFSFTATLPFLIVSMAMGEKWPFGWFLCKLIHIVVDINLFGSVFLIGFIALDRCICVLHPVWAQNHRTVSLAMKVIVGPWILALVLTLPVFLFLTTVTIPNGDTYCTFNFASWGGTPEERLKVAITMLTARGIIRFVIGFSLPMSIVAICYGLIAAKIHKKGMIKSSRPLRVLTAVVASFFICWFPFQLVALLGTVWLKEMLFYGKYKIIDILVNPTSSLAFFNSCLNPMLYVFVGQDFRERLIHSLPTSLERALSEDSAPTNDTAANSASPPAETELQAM
Assay: Intracellular calcium measurements (FLIPR), ALX receptor agonistic activity
Assay type: cell-based
Settings: HEK293-hALXR-Gα16 cells, Fluo-4 calcium signal, normalized to WKYMVm 10 nM
Procedure, shortened: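 HEK293 cells co-expressing human ALX receptor and Gα16 were loaded with 1 μM Fluo-4 AM for 60 min at 37° C., then exposed to serially diluted compounds on FLIPR Tetra. Peak fluorescence above baseline (ex 488/em 540 nm) was normalized to 10 nM WKYMVm as high control.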

| Compound | EC50 [nM] |
| --- | --- |
| COc1ccc(C[C@@H](NC(=O)NC23CCC(O)(CC2)CC3)c2nc3ccc(Cl)cc3[nH]2)cc1 [Example 192, (R)-1-(1-(6-Chloro-1H-benzo[d]imidazol-2-yl)-2-(4-methoxyphenyl)ethyl)-3-(4-hydroxybicyclo[2.2.2]octan-1-yl)urea] | 0.1 |
| COc1ccc(CC(NC(=O)NCc2ccon2)c2nc3ccccc3[nH]2)cc1 (centres unmarked) [Example 384, 1-(1-(1H-Benzo[d]imidazol-2-yl)-2-(4-methoxyphenyl)ethyl)-3-(isoxazol-3-ylmethyl)urea] | 1220 |
| COc1ccc(C[C@@H](NC(=O)N[C@H](CO)c2ccccc2)c2nc3ccccc3[nH]2)cc1 [Example 203, 1-((R)-1-(1H-Benzo[d]imidazol-2-yl)-2-(4-methoxyphenyl)ethyl)-3-((S)-2-hydroxy-1-phenylethyl)urea] | 176 |
| O=C(N[C@H](Cc1ccc(Br)cc1)c1nc2ccccc2[nH]1)NC12CCC(O)(CC1)CC2 [Example 220, (R)-1-(1-(1H-Benzo[d]imidazol-2-yl)-2-(4-bromophenyl)ethyl)-3-(4-hydroxybicyclo[2.2.2]octan-1-yl)urea] | 4.9 |
| COc1ccc(C[C@@H](NC(=O)N[C@H]2CC[C@H](O)CC2)c2nc3cc(F)ccc3[nH]2)cc1 [Example 85, 1-((R)-1-(5-Fluoro-1H-benzo[d]imidazol-2-yl)-2-(4-methoxyphenyl)ethyl)-3-(trans-4-hydroxycyclohexyl)urea] | 1.6 |
| COc1ccc(C[C@@H](NC(=O)NCCC2CCCN2C)c2nc3ccccc3[nH]2)cc1 (stereo partly drawn) [Example 65, 1-((R)-1-(1H-Benzo[d]imidazol-2-yl)-2-(4-methoxyphenyl)ethyl)-3-(2-(1-methylpyrrolidin-2-yl)ethyl)urea dihydrochloride] | 290 |
| COc1ccc(C[C@@H](NC(=O)NC2(c3cccc(Cl)c3)CC2)c2nc3ccccc3[nH]2)cc1 [Example 283, (R)-1-(1-(1H-Benzo[d]imidazol-2-yl)-2-(4-methoxyphenyl)ethyl)-3-(1-(3-chlorophenyl)cyclopropyl)urea] | 295 |
| COc1ccc(C[C@@H](NC(=O)NCCC(N)=O)c2nc3ccccc3[nH]2)cc1 [Example 110, (R)-3-(3-(1-(1H-Benzo[d]imidazol-2-yl)-2-(4-methoxyphenyl)ethyl)ureido)propanamide] | 746 |
| COc1ccc(C[C@@H](NC(=O)NC2CCCN(C)C2)c2nc3ccccc3[nH]2)cc1 (stereo partly drawn) [Example 117, 1-((R)-1-(1H-Benzo[d]imidazol-2-yl)-2-(4-methoxyphenyl)ethyl)-3-(1-methylpiperidin-3-yl)urea] | 62 |
| COc1ccc(C[C@@H](NC(=O)NC2CCCCC2C)c2nc3ccccc3[nH]2)cc1 (stereo partly drawn) [Example 23, 1-((R)-1-(1H-Benzo[d]imidazol-2-yl)-2-(4-methoxyphenyl)ethyl)-3-(2-methylcyclohexyl)urea] | 124 |
| COc1ccc(C[C@@H](NC(=O)NC2CCNCC2)c2nc3ccccc3[nH]2)cc1 [Example 108, (R)-1-(1-(1H-Benzo[d]imidazol-2-yl)-2-(4-methoxyphenyl)ethyl)-3-(piperidin-4-yl)urea] | 52 |
| COc1ccc(C[C@@H](NC(=O)NCCc2ccc(OC)cn2)c2nc3ccccc3[nH]2)cc1 [Example 296, (R)-1-(1-(1H-Benzo[d]imidazol-2-yl)-2-(4-methoxyphenyl)ethyl)-3-(2-(5-methoxypyridin-2-yl)ethyl)urea] | 227 |
| CCOC(=O)[C@@H]1CCCC[C@H]1NC(=O)N[C@H](Cc1ccc(OC)cc1)c1nc2ccccc2[nH]1 (relative stereo) [Example 161, (1R*,2R*)-Ethyl 2-(3-((R)-1-(1H-benzo[d]imidazol-2-yl)-2-(4-methoxyphenyl)ethyl)ureido)cyclohexanecarboxylate] | 0.6 |
| COc1ccc(CC(NC(=O)N[C@H]2CC[C@H](O)CC2)c2nc3ccccc3[nH]2)c(C)c1 (relative stereo) [Example 396, 1-(1-(1H-Benzo[d]imidazol-2-yl)-2-(4-methoxy-2-methylphenyl)ethyl)-3-(trans-4-hydroxycyclohexyl)urea] | 26 |
| COc1ccc(C[C@@H](NC(=O)NCc2nccnc2OCC(F)(F)F)c2nc3ccccc3[nH]2)cc1 [Example 217, (R)-1-(1-(1H-Benzo[d]imidazol-2-yl)-2-(4-methoxyphenyl)ethyl)-3-((3-(2,2,2-trifluoroethoxy)pyrazin-2-yl)methyl)urea] | 19 |
| COc1ccc(CC(NC(=O)Nc2ccnn2-c2ccc(OC(F)(F)F)cc2)c2nc3ccccc3[nH]2)cc1 (centres unmarked) [Example 413, 1-(1-(1H-benzo[d]imidazol-2-yl)-2-(4-methoxyphenyl)ethyl)-3-(1-(4-(trifluoromethoxy)phenyl)-1H-pyrazol-5-yl)urea] | 153 |

| Compound | EC50 [nM] |
| --- | --- |
| COc1ccc(C[C@@H](NC(=O)NCCc2ccc(F)c(F)c2)c2nc3ccccc3[nH]2)cc1 [Example 300, (R)-1-(1-(1H-Benzo[d]imidazol-2-yl)-2-(4-methoxyphenyl)ethyl)-3-(3,4-difluorophenethyl)urea] | 82 |
| COc1ccc(C[C@@H](NC(=O)N[C@@H]2CCCNC2)c2nc3ccccc3[nH]2)cc1 [Example 131, 1-((R)-1-(1H-Benzo[d]imidazol-2-yl)-2-(4-methoxyphenyl)ethyl)-3-((R)-piperidin-3-yl)urea] | 15 |
| COc1ccc(C[C@@H](NC(=O)N[C@H]2CC[C@H](O)CC2)c2nc3ccc(C#N)cc3[nH]2)cc1 [Example 152, 1-((R)-1-(6-Cyano-1H-benzo[d]imidazol-2-yl)-2-(4-methoxyphenyl)ethyl)-3-(trans-4-hydroxycyclohexyl)urea] | 6.2 |
| O=C(N[C@H](Cc1ccc(CF)cc1)c1nc2ccccc2[nH]1)N[C@H]1CC[C@H](O)CC1 [Example 364, 1-((R)-1-(1H-Benzo[d]imidazol-2-yl)-2-(4-(fluoromethyl)phenyl)ethyl)-3-(trans-4-hydroxycyclohexyl)urea] | 10 |
| COc1ccc(C[C@@H](NC(=O)N[C@@H]2CCNC2)c2nc3ccccc3[nH]2)cc1 [Example 125, 1-((R)-1-(1H-Benzo[d]imidazol-2-yl)-2-(4-methoxyphenyl)ethyl)-3-((R)-pyrrolidin-3-yl)urea] | 82 |
| COc1ccc(C[C@@H](NC(=O)NCc2cccnc2COC(C)C(F)(F)F)c2nc3ccccc3[nH]2)cc1 (stereo partly drawn) [Example 216, 1-((R)-1-(1H-Benzo[d]imidazol-2-yl)-2-(4-methoxyphenyl)ethyl)-3-((2-(((1,1,1-trifluoropropan-2-yl)oxy)methyl)pyridin-3-yl)methyl)urea] | 2.1 |
| COc1ccc(C[C@@H](NC(=O)NCC2CCCCC2)c2nc3ccccc3[nH]2)cc1 [Example 98, (R)-1-(1-(1H-Benzo[d]imidazol-2-yl)-2-(4-methoxyphenyl)ethyl)-3-(cyclohexylmethyl)urea] | 432 |
| COc1ccc(C[C@@H](NC(=O)N[C@H](C)c2cccc(Cl)c2)c2nc3ccccc3[nH]2)cc1 [Example 324, 1-((R)-1-(1H-Benzo[d]imidazol-2-yl)-2-(4-methoxyphenyl)ethyl)-3-((R)-1-(3-chlorophenyl)ethyl)urea] | 712 |
| COc1ccc(C[C@@H](NC(=O)NC2CCC(F)(F)CC2)c2nc3ccccc3[nH]2)cc1 [Example 14, (R)-1-(1-(1H-Benzo[d]imidazol-2-yl)-2-(4-methoxyphenyl)ethyl)-3-(4,4-difluorocyclohexyl)urea] | 38 |
| COc1ccc(C[C@@H](NC(=O)NC2CCN(Cc3ccccc3)C2)c2nc3ccccc3[nH]2)cc1 (stereo partly drawn) [Example 102, 1-((R)-1-(1H-Benzo[d]imidazol-2-yl)-2-(4-methoxyphenyl)ethyl)-3-(1-benzylpyrrolidin-3-yl)urea] | 376 |
| COc1ccc(C[C@@H](NC(=O)NCc2cccc(C)c2)c2nc3ccccc3[nH]2)cc1 [Example 276, (R)-1-(1-(1H-Benzo[d]imidazol-2-yl)-2-(4-methoxyphenyl)ethyl)-3-(3-methylbenzyl)urea] | 229 |
| COc1ccc(CC(NC(=O)NC2CCC(CCO)CC2)c2nc3ccccc3[nH]2)cc1 (centres unmarked) [Example 107, 1-(1-(1H-Benzo[d]imidazol-2-yl)-2-(4-methoxyphenyl)ethyl)-3-(4-(2-hydroxyethyl)cyclohexyl)urea] | 6 |
| COc1ccc(C[C@@H](NC(=O)N[C@@H](C)c2cccc(Cl)c2)c2nc3ccccc3[nH]2)cc1 [Example 325, 1-((R)-1-(1H-Benzo[d]imidazol-2-yl)-2-(4-methoxyphenyl)ethyl)-3-((S)-1-(3-chlorophenyl)ethyl)urea] | 186 |
| CC1(O)CCC(NC(=O)NC(Cc2ccc(Br)cc2F)c2nc3ccccc3[nH]2)CC1 (single isomer, unassigned; ent-1) [Example 264, 1-(1-(1H-Benzo[d]imidazol-2-yl)-2-(4-bromo-2-fluorophenyl)ethyl)-3-(trans-4-hydroxy-4-methylcyclohexyl)urea (ent-1)] | 9 |
| COc1ccc(C[C@@H](NC(=O)NC2CCNC2)c2nc3ccccc3[nH]2)cc1 (stereo partly drawn) [Example 100, 1-((R)-1-(1H-Benzo[d]imidazol-2-yl)-2-(4-methoxyphenyl)ethyl)-3-(pyrrolidin-3-yl)urea] | 87 |
| COc1cc(F)c(CC(NC(=O)NC23CCC(O)(CC2)CC3)c2nc3ccccc3[nH]2)cc1F (single isomer, unassigned; ent-1) [Example 357, 1-(1-(1H-Benzo[d]imidazol-2-yl)-2-(2,5-difluoro-4-methoxyphenyl)ethyl)-3-(4-hydroxybicyclo[2.2.2]octan-1-yl)urea (ent-1)] | 1 |
